Patent publication US20260199485A1, “RNA DEGRADERS AND USES THEREOF” (Arrakis Therapeutics, Inc., priority 2022, published 2026)

What was measured:
[1] = target: T1, CNOT7-FKBP12(F36V) fusion protein (Homo sapiens, UniProt Q9UIV1); assay: Biochemical gel assay: degradation/deadenylation of RNA substrate with immunoprecipitated CNOT7-FKBP12(F36V); parameters: key to Activity by gel: +: an activity observed as compared to DMSO control; −: no activity observed as compared to DMSO control; conditions: Table 8; degradation of RNA, compared to DMSO control
T1 construct: expressed in transfected cells; host or cells: H1299 cells; anti-HA immunoprecipitation, HA-peptide elution
T1 sequence (Q9UIV1 with tags, fused parts or gaps): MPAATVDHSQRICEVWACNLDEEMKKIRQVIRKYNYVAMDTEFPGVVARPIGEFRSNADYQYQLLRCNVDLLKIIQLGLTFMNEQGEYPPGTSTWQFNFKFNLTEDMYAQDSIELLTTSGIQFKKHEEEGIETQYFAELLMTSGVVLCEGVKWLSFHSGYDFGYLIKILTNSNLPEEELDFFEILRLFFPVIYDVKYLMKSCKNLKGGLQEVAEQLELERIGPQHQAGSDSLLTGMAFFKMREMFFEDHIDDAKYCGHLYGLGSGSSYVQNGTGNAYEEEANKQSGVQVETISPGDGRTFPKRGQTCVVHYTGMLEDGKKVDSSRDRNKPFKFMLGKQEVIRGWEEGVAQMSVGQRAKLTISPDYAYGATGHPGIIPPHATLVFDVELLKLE
Description: Biochemical reporter systems were generated to evaluate the ability of CNOT7 binding compounds to accelerate the degradation of RNA by CNOT7. […] Generation of the target RNA was described in the previous experiment. […] The bifunctional molecules consist of Compound 1-4 and the following rSM:
which binds to the RNA sequence of AST-X, or the rSM linked to a tag that binds CNOT7-FKBPV. Specifically, the tag is compound AP1867 (CAS NO.: 195514-23-9), a known binder of FKBPV, resulting in the rSM-AP1867tag. The CNOT7-FKBPV is obtained by immunoprecipitation of cell engineered to express CNOT-FKBPV. Specifically, H1299 cells were transfected with plasmid expressing HA-tagged CNOT7-FKBP12(F36V) fusion protein. After 24 hours, cells were pelleted and lysed in the following lysis buffer: 20 mM HEPES pH 7.3, 0.2 mM EGTA, 10% glycerol, 0.1 mM DTT with cOmplete EDTA-free protease inhibitors (Millipore). After freeze-thawing, NaCl was added to a concentration of 400 mM and lysates were pelleted to clear cellular debris. Cleared lysate was adjusted to buffer conditions containing 0.1% NP-40 and 150 mM NaCl before being applied to Pierce Anti-HA magnetic beads (ThermoFisher) at 4° C. for 2-20 hours with end-over-end rotation. After washing, bound protein was competitively eluted with 2 mg/mL HA peptide (ThermoFisher) in activity assay buffer at 4° C. for 2-20 hours. It should be appreciated that this immunoprecipitation protocol will result in tagged CNOT7 that will likely have other components of the CCR4-NOT complex bound as well.
The reactions were incubated at 37° C., with specified timepoints removed from the reaction and combined with 2× formamide RNA loading buffer with 10 mM EDTA before boiling for 3 minutes to quench the reaction. Samples were run on a pre-warmed 15% TBE-Urea polyacrylamide gel at 180V for 90 minutes and then imaged using Cy2 settings on the Azure Biosystems 600 Imaging System. […] It should be noted that the CCR4-NOT complex includes proteins other than CNOT7, for instance CNOT6, that have deadenylation and/or exonuclease activity.
These findings were confirmed in the biochemical assay described above. […] In contrast, literature compounds that are active site binders, compounds A, B and C, structure depicted on the right-hand side, do interfere with the ability of CNOT7 to degrade RNA (See center panel of gel).
Heterobifunctional molecules were generated by conjugating the rSM depicted above, which binds RNA with an AST-X sequence, to AP1867 (a small molecule binder of FKBP12(F36V)), resulting in rSM-AP1867tag. In addition, I-243 was conjugated to the rSM resulting in compounds 1-329 and I-371, depicted in FIG. 17. Fluorescently labeled RNA substrates were refolded in the presence of Mg^2+ and incubated 10, 25, or 50 μM doses of heterobifunctional molecules for 30 minutes at room temperature before the enzymatic reaction was initiated with the elution fraction (containing CNOT7-FKBP12(F36V) fusion protein) from the immunoprecipitation protocol above. The reactions were incubated at 37° C., with specified timepoints removed from the reaction and combined with 2× formamide RNA loading buffer with 10 mM EDTA before boiling for 3 minutes to quench the reaction. Samples were run on a pre-warmed 15% TBE-Urea polyacrylamide gel at 180V for 120 minutes and then imaged using Cy2 settings on the Azure Biosystems 600 Imaging System (See FIGS. 18, 19A and 19B). In addition, for 1-371 and the control rSM-AP1867tag, the disappearance of the full-length substrate band was quantified using ImageJ and plotted over time (FIG. 19B).

CNOT7 = target: T2, CNOT7 (Homo sapiens, UniProt Q9UIV1); assay: Binding of compounds to CNOT7 by surface plasmon resonance (SPR)
T2 construct: biotin (biotinylated); purchased Ichor Life Sciences
T2 sequence (Q9UIV1 whole entry): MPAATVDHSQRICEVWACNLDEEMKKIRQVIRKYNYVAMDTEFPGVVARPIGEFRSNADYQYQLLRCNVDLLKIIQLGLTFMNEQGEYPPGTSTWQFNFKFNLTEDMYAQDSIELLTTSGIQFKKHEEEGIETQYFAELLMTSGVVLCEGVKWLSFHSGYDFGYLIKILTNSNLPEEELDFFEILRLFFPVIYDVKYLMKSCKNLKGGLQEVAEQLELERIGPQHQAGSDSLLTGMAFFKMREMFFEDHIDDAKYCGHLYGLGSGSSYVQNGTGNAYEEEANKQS
Description: Surface plasmon resonance (SPR) was used to evaluate the binding of compounds to CNOT7. Experiments were performed on a Biacore 8K (Cytiva) with a running buffer consisting of 20 mM HEPES pH7.5, 100 mM KCl, 3 mM MgCl2, 1 mM TCEP, 0.05% tween-20, 2% DMSO. Briefly, biotinylated CNOT7 (Ichor Life Sciences) at a concentration of 70 μg/ml was immobilized to a streptavidin coated chip (Cytiva sensor chip SA) for 1200 sec at a flow rate of 5 μl/min (typical immobilization level 7,500 RU). For compound binding experiments, various concentrations of analyte were flowed over the chip with 120 sec association phase, 120 sec dissociation phase, at a flow rate of 30 ul/min and collection rate of 10 Hz. Reference channel subtraction and solvent correction were applied to all sensograms prior to data analysis. Sensograms were fit to 1:1 steady state affinity model. FIGS. 3 and 4 show the binding of exemplary compounds and the AMP control (a known CNOT7 active site binder) at various concentrations to CNOT7.

[2] = dissociation constant by SPR, Table 7
[3] = Table 5, dissociation constant for CNOT7 by SPR
[4] = Table 6, dissociation constant for CNOT7 by SPR

Compound | Activity by gel [1] | Kd (CNOT7; [2]) | Kd (CNOT7; [3]) | other results
COc1ccc(CNC(=O)[C@@H](COCCOCCOCCn2cc(COCCOCCOCCOCCOc3ccc(NC(=O)Nc4nc(CC(=O)N5CCN(C)CC5)cs4)cc3)nn2)Sc2nc(=O)[nH]cc2C)cc1 [Compound I-475] | − | 1 to 25 µM |  | 
Cc1c[nH]c(=O)nc1SCC(=O)NCc1ccc(OCCOCCOCCOCCn2cc(COc3ccc(NC(=O)Nc4nc(CC(=O)N5CCN(C)CC5)cs4)cc3)nn2)cc1 [Compound I-533] | − |  |  | 
COc1ccc([C@@H](C)NC(=O)[C@@H](COCCOCCOCc2cn(CCOc3ccc(NC(=O)Nc4nc(CC(=O)N5CCN(C)CC5)cs4)cc3)nn2)Sc2nc(=O)[nH]cc2Cl)c(F)c1 [Compound I-372] | + | 1 to 25 µM |  | 
COc1ccc2c(c1)C[C@H](COCCOCCOCCOCc1cn(CCOc3ccc(NC(=O)Nc4nc(CC(=O)N5CCN(C)CC5)cs4)cc3)nn1)N(C(=O)CSc1nc(=O)[nH]cc1C)C2 [Compound I-339] | + | > 25 µM |  | 
COc1ccc(CNC(=O)[C@@H](COCCOCCOCCn2cc(COCCOCCOc3ccc(NC(=O)Nc4nc(CC(=O)N5CCN(C)CC5)cs4)cc3)nn2)Sc2nc(=O)[nH]cc2C)c(F)c1 [Compound I-473] | − | 1 to 25 µM |  | 
COc1ccc(C(C)NC(=O)C(CCOCCOCCOCCn2cc(CCc3ccc(NC(=O)Nc4nc(CC(=O)N5CCN(C)CC5)cs4)cc3)nn2)Sc2nc(=O)[nH]cc2C)c(F)c1 (centres unmarked) [Compound I-382] | + |  |  | 
COc1ccc(CNC(=O)[C@H](COCCOCCOCCn2cc(COCCOCCOCCOCCOc3ccc(NC(=O)Nc4nc(CC(=O)N5CCN(C)CC5)cs4)cc3)nn2)Sc2nc(=O)[nH]cc2C)cc1 [Compound I-476] | − | 1 to 25 µM |  | 
COc1ccc2c(c1)C[C@@H](COCCOCCOCCOCCn1cc(COCCOCCOc3ccc(NC(=O)Nc4nc(CC(=O)N5CCN(C)CC5)cs4)cc3)nn1)C(C(=O)CSc1nc(=O)[nH]cc1C)C2 (some centres unmarked) [Compound I-495] | − | > 25 µM |  | 
COc1ccc2c(c1)CC(COCCOCCOCCOCc1cn(CCOc3ccc(NC(=O)Nc4nc(CC(=O)N5CCN(C)CC5)cs4)cc3)nn1)N(C(=O)CSc1nc(=O)[nH]cc1C)C2 (centres unmarked) [Compound I-451] | − | > 25 µM |  | 
COc1ccc2c(c1)C[C@@H](COCCOCCOCCOCc1cn(CCOc3ccc(NC(=O)Nc4nc(CC(=O)N5CCN(C)CC5)cs4)cc3)nn1)N(C(=O)CSc1nc(=O)[nH]cc1C)C2 [Compound I-338] | − | > 25 µM |  | 
COc1ccc([C@@H](C)NC(=O)[C@H](CCOCCOCCOCCn2cc(COCCOCCOCCOCCOc3ccc(NC(=O)Nc4nc(CC(=O)N5CCN(C)CC5)cs4)cc3)nn2)Sc2nc(=O)[nH]cc2Cl)c(F)c1 [Compound I-398] | − |  |  | 
COc1ccc(C(C)NC(=O)C(CCC(=O)N(C)c2cccc(OCCOc3ccc(NC(=O)Nc4nc(CC(=O)N5CCN(C)CC5)cs4)cc3)c2)Sc2nc(=O)[nH]cc2C)c(F)c1 (centres unmarked) [Compound I-515] | − |  |  | 
C[C@@H](NC(=O)CSc1nc(=O)[nH]cc1Cl)c1ccc(Cl)c(F)c1 [Compound I-314] |  |  | 1 to 25 µM | 
COc1cc(F)c([C@@H](C)NC(=O)CSc2nc(=O)[nH]cc2Cl)c(F)c1 [Compound I-312] |  |  |  | Kd (CNOT7; [4]): 1 to 25 µM
COc1ccc([C@@H](C)NC(=O)[C@@H](COCCOCCOCCN=[N+]=[N-])Sc2nc(=O)[nH]cc2C)c(F)c1 [Compound I-367] |  | 1 to 25 µM |  | 
COc1ccc(CN2CC[C@H](Sc3nc(=O)[nH]cc3C)C2=O)cc1 [Compound I-254] |  |  | > 25 µM | 
COCC(Sc1nc(=O)[nH]cc1C)C(=O)NCc1ccc2c(c1)CC(=O)N2 (centres unmarked) [Compound I-191] |  |  | 0.1 to 1 µM | 
COc1ccc(CNC(=O)COc2nc(=O)[nH]cc2C)cc1 [Compound I-31] |  |  | > 25 µM | 
COc1ccc(C2(NC(=O)CSc3nc(=O)[nH]cc3C)CC2)cc1 [Compound I-197] |  |  | 1 to 25 µM | 
COc1ccc(C(C)NC(=O)CSc2nc(=O)[nH]cc2C)cc1 (centres unmarked) [Compound I-28] |  |  | 1 to 25 µM | 

Compound | Activity by gel [1] | Kd (CNOT7; [2]) | Kd (CNOT7; [3]) | other results
COc1ccc(CN(CCO)C(=O)CSc2cc(=O)[nH]cc2C)cc1 [Compound I-287] |  |  | > 25 µM | 
COc1ccc(CNC(=O)[C@@H](COCCOCCOCCN=[N+]=[N-])Sc2nc(=O)[nH]cc2C)c(F)c1 [Compound I-405] |  | 1 to 25 µM |  | 
COc1ccc(C(C)NC(=O)C2CC2c2nc(=O)[nH]cc2C)cc1 (mixture of isomers) [Compound I-240] |  |  | > 25 µM | 
COc1cc(F)c2c(c1)CCN(C(=O)CSc1nc(=O)[nH]cc1Cl)C2 [Compound I-440] |  | > 25 µM |  | 
COc1ccc(C(C)NC(=O)C2CC2c2nc(=O)[nH]cc2C)cc1 (mixture of isomers) [Compound I-239] |  |  | > 25 µM | 
COCCN1CCN(CCC(Sc2nc(=O)[nH]cc2C)C(=O)NCc2ccc(OC)cc2)CC1 (centres unmarked) [Compound I-499] |  | 1 to 25 µM |  | 
COc1ccc(C(C)NC(=O)CSc2nc(=O)[nH]cc2C)cc1F (centres unmarked) [Compound I-244] |  |  |  | Kd (CNOT7; [4]): 1 to 25 µM
CC#CCNC(=O)CCC(Sc1nc(=O)[nH]cc1C)C(=O)NCc1ccc(OC)cc1 (centres unmarked) [Compound I-492] |  | > 25 µM |  | 
C#CCOCCOCCOCCOC[C@@H]1Cc2cc(OC)ccc2[C@H](C)N1C(=O)CSc1nc(=O)[nH]cc1Cl [Compound I-482] |  | 1 to 25 µM |  | 
COc1ccc([C@@H](C)NC(=O)[C@@H](CCOCCOCCOCCN=[N+]=[N-])Sc2nc(=O)[nH]cc2Cl)c(F)c1 [Compound I-349] |  | 1 to 25 µM |  | 
Cc1c[nH]c(=O)nc1SCC(=O)NCc1ccc2c(c1)COC2 [Compound I-58] |  |  |  | Kd (CNOT7; [4]): > 25 µM
COc1ccc([C@@H](C)NC(=O)[C@H](CCC(=O)N(C)Cc2cn(CCOc3ccc(NC(=O)Nc4nc(CC(=O)N5CCN(C)CC5)cs4)cc3)nn2)Sc2nc(=O)[nH]cc2C)c(F)c1 [Compound I-505] | − |  |  | 
Cc1c[nH]c(=O)nc1SCC(=O)NCc1ccc2c(c1)CC(=O)N2 [Compound I-56] |  |  | 1 to 25 µM | 
COc1ccc2c(c1)CN(C(=O)CSc1nc(=O)[nH]cc1C)C2 [Compound I-205] |  |  | > 25 µM | 
COc1ccc(C(CN(C)C)NC(=O)CSc2nc(=O)[nH]cc2C)cc1 (centres unmarked) [Compound I-340] |  | > 25 µM |  | 
COc1ccc([C@@H](C)NC(=O)CSc2cc(=O)[nH]cc2C)nc1 [Compound I-281] |  |  |  | Kd (CNOT7; [4]): 1 to 25 µM
COc1ccc([C@@H](C)NC(=O)CSc2nc(=O)[nH]cc2Cl)cc1 [Compound I-229] |  |  |  | Kd (CNOT7; [4]): 1 to 25 µM
COc1ccc(C(C)NC(=O)C2CC2c2nc(=O)[nH]cc2C)cc1 (centres unmarked) [Compound I-238] |  |  | > 25 µM | 
COc1ccc([C@@H](C)NC(=O)[C@@H](CCC(=O)N(C)Cc2cn(CCOc3ccc(NC(=O)Nc4nc(CC(=O)N5CCN(C)CC5)cs4)cc3)nn2)Sc2nc(=O)[nH]cc2C)c(F)c1 [Compound I-506] | − |  |  | 
